Where two headings read alike, the source gives them in different places.
Tests used:
H. pylori urease (HPU) = molecular target: T1, H. pylori urease (HPU) (Helicobacter pylori, UniProt P69996); test: biochemical; format: biochemical; conditions: read-out: Residual urease activity (percent of control), Fig 5A HPU, thiols 1.25 mM, Pal 0.5 mM, 20+20 min
T1 construct: HPU was prepared as previously described; made in house
Protocol: (§1) The reaction mixture consisted of 0.25 mg/mL HPU or JBU, 0.5 mM Pal (for both HPU and JBU), and 1.25 mM thiols (DTT, GSH, or L-cys) in 20 mM HEPES buffer (pH 7.5). The components of the incubation mixture were mixed according to three procedures: (1) Urease was added to the mixture after a 20-min co-incubation of Pal with thiol. (2) Pal was added to the mixture after a 20-min co-incubation of urease with thiol. (3) Thiols were added to the mixture after a 20-min co-incubation of urease with Pal. The incubation mixture containing all components was incubated for further 20 min and the activity of urease was determined. The experiments were triply performed.

jack bean urease (JBU) = molecular target: T2, jack bean urease (JBU) (Canavalia ensiformis, UniProt P07374); test: biochemical; format: biochemical; conditions: read-out: Residual urease activity (percent of control), Fig 5B JBU, thiols 1.25 mM, Pal 0.5 mM, 20+20 min
T2 construct: Urease from jack bean (Canavalia ensiformis, JBU); purchased Sigma-Aldrich (St Louis, MO, USA) type III (catalogue number not given)
T2 sequence (P07374 whole entry, looked up): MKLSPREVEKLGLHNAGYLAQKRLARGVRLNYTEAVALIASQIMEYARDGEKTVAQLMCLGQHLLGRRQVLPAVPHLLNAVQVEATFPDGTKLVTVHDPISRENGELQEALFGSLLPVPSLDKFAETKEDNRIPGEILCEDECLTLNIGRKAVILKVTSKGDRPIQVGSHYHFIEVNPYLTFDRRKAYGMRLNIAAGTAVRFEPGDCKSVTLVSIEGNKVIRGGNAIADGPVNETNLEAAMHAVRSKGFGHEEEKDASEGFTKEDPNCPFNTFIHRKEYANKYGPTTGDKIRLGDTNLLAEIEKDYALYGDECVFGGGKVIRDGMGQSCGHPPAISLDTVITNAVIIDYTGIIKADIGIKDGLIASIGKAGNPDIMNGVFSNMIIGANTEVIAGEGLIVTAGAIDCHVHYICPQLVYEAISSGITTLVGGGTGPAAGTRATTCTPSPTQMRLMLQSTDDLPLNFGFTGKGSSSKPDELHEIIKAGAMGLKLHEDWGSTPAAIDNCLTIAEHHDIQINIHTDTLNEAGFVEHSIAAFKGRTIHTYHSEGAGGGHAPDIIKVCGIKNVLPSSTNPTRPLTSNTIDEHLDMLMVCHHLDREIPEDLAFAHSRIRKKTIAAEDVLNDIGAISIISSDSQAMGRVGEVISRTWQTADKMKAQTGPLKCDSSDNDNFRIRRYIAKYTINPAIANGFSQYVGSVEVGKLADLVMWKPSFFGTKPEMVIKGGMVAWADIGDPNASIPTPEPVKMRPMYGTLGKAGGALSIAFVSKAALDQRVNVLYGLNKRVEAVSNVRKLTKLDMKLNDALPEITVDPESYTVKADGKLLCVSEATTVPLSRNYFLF
Protocol: as §1

T1 sequence (P14916 whole entry): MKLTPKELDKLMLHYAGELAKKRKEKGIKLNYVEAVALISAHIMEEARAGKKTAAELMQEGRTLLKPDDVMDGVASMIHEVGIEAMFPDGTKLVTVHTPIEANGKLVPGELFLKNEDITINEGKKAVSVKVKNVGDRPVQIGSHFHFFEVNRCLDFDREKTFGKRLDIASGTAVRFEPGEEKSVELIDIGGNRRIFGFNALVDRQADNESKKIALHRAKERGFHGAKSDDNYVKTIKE
T1 sequence (P69996 whole entry): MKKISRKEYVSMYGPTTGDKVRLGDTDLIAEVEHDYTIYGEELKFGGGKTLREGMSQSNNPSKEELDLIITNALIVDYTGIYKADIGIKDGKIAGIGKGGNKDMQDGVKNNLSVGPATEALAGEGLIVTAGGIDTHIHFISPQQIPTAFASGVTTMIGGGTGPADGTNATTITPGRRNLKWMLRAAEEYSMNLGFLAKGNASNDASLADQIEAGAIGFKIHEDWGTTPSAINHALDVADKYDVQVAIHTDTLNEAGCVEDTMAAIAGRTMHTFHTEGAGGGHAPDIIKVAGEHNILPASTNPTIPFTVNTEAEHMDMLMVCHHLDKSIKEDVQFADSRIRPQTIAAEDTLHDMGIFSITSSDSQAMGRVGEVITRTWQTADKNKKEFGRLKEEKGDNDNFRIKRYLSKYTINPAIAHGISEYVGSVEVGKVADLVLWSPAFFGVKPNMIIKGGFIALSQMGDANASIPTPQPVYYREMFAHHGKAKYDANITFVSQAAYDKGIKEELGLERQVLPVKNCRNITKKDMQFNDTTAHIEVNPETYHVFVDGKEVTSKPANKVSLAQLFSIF

COc1cc2c(cc1OC)-c1cc3ccc(OC)c(OC)c3c[n+]1CC2 [Pal, Palmatine]
remaining activity at 500 µM (H. pylori urease (HPU); order (Protector+Pal)+urease): 19.8% | remaining activity at 500 µM (H. pylori urease (HPU); order (urease+Pal)+Protector): 20% | remaining activity at 500 µM (H. pylori urease (HPU); order (urease+Protector)+Pal): 16.7% | remaining activity at 500 µM (jack bean urease (JBU); order (Protector+Pal)+urease): 43.3% | remaining activity at 500 µM (jack bean urease (JBU); order (urease+Pal)+Protector): 38% | remaining activity at 500 µM (jack bean urease (JBU); order (urease+Protector)+Pal): 35.4%

Source: publication PMC5207512, “Inhibition of Helicobacter pylori and Its Associated Urease by Palmatine: Investigation on the Potential Mechanism” (PLoS ONE, 2017)
